In ChEMBL document CHEMBL3603759, “Ribosome-targeting antibiotics as inhibitors of oncogenic microRNAs biogenesis: Old scaffolds for new perspectives in RNA targeting” (Bioorg Med Chem, 2015):
pIC50, pKd: −log10 of the molar value. Activity calls are given as the source filed them. The calls are words filed in the database; no cut-off is given here.

What was measured:
[1] = Inhibition of pre-miR-372 (unknown origin) cleavage at U15-G16-G17-A18 at 10 to 100 uM after 15 mins by RNase footprinting assay in presence of RNase-V1
[2] = Inhibition of pre-miR-372 (unknown origin) cleavage assessed as reduction of oncogenic microRNAs biogenesis by measuring fluorescence every minute for 5 hrs using 5'-FAM,3'-dabcyl-pre-miRNA beacons by FRET assay in presence of recombinant Dicer
[3] = Inhibition of pre-miR-373 (unknown origin) cleavage assessed as reduction of oncogenic microRNAs biogenesis by measuring fluorescence every minute for 5 hrs using 5'-FAM,3'-dabcyl-pre-miRNA beacons by FRET assay in presence of recombinant Dicer
[4] = Inhibition of pre-miR-21 (unknown origin) cleavage assessed as reduction of oncogenic microRNAs biogenesis at 200 uM by measuring fluorescence every minute for 5 hrs using 5'-FAM,3'-dabcyl-pre-miRNA beacons by FRET assay in presence of recombinant Dicer
[5] = Binding affinity to 5'-FAM-pre-miR-17 (unknown origin) after 4 hrs by fluorescence assay; conditions: read-out: Kd
[6] = Inhibition of pre-miR-21 (unknown origin) cleavage assessed as reduction of oncogenic microRNAs biogenesis by measuring fluorescence every minute for 5 hrs using 5'-FAM,3'-dabcyl-pre-miRNA beacons by FRET assay in presence of recombinant Dicer
[7] = Binding affinity to 5'-FAM-pre-miR-372 (unknown origin) after 4 hrs by fluorescence assay; conditions: read-out: Kd
[8] = Inhibition of pre-miR-372 (unknown origin) cleavage at A10-A11 at 10 to 100 uM after 15 mins by RNase footprinting assay in presence of RNase-V1
[9] = Ratio of Kd for 5'-FAM-pre-miR-372 (unknown origin) in presence of 100-fold excess of 15-mer DNA to Kd for 5'-FAM-pre-miR-372 (unknown origin)
[10] = Inhibition of pre-miR-372 (unknown origin) cleavage at A42 at 1 to 100 uM after 2 hrs by denaturing gel electrophoresis in presence of recombinant Dicer
[11] = Ratio of Kd for 5'-FAM-pre-miR-372 (unknown origin) in presence of 100-fold excess of Escherichia coli tRNA to Kd for 5'-FAM-pre-miR-372 (unknown origin)
[12] = Inhibition of pre-miR-372 (unknown origin) cleavage at A24 at 1 to 100 uM after 2 hrs by denaturing gel electrophoresis in presence of recombinant Dicer
[13] = Binding affinity to 5'-FAM-pre-miR-373 (unknown origin) after 4 hrs by fluorescence assay; conditions: read-out: Kd
[14] = Binding affinity to 5'-FAM-pre-miR-372 (unknown origin) assessed as change in total free energy by thermodynamic assay
[15] = Inhibition of pre-miR-372 (unknown origin) cleavage at C27 at 10 to 100 uM after 15 mins by RNase footprinting assay in presence of RNase-V1
[16] = Inhibition of pre-miR-17 (unknown origin) cleavage assessed as reduction of oncogenic microRNAs biogenesis by measuring fluorescence every minute for 5 hrs using 5'-FAM,3'-dabcyl-pre-miRNA beacons by FRET assay in presence of recombinant Dicer
[17] = Inhibition of pre-miR-372 (unknown origin) cleavage at U28 at 1 to 100 uM after 2 hrs by denaturing gel electrophoresis in presence of recombinant Dicer
[18] = Binding affinity to 5'-FAM-pre-miR-372 (unknown origin) after 4 hrs by fluorescence assay in presence of 100-fold excess of 15-mer DNA
[19] = Inhibition of pre-miR-372 (unknown origin) cleavage assessed as reduction of oncogenic microRNAs biogenesis at 200 uM by measuring fluorescence every minute for 5 hrs using 5'-FAM,3'-dabcyl-pre-miRNA beacons by FRET assay in presence of recombinant Dicer
[20] = Inhibition of pre-miR-373 (unknown origin) cleavage assessed as reduction of oncogenic microRNAs biogenesis at 200 uM by measuring fluorescence every minute for 5 hrs using 5'-FAM,3'-dabcyl-pre-miRNA beacons by FRET assay in presence of recombinant Dicer
[21] = Binding affinity to 5'-FAM-pre-miR-372 (unknown origin) after 4 hrs by fluorescence assay in presence of 100-fold excess of Escherichia coli tRNA
[22] = Inhibition of pre-miR-17 (unknown origin) cleavage assessed as reduction of oncogenic microRNAs biogenesis at 200 uM by measuring fluorescence every minute for 5 hrs using 5'-FAM,3'-dabcyl-pre-miRNA beacons by FRET assay in presence of recombinant Dicer
[23] = Inhibition of pre-miR-372 (unknown origin) cleavage at 10 to 100 uM after 15 mins by RNase footprinting assay in presence of RNase-S1
[24] = Inhibition of pre-miR-372 (unknown origin) cleavage at U31, G32 and U33 at 1 to 100 uM after 15 mins by RNase footprinting assay in presence of RNase-S1
[25] = Inhibition of pre-miR-372 (unknown origin) cleavage at 1 to 100 uM after 15 mins by RNase footprinting assay in presence of RNase-V1

## NC[C@@H]1O[C@H](O[C@H]2[C@@H](O)[C@H](O[C@@H]3[C@@H](O)[C@H](N)C[C@H](N)[C@H]3O[C@H]3O[C@H](CN)[C@@H](O)[C@H](O)[C@H]3N)O[C@@H]2CO)[C@H](N)[C@@H](O)[C@@H]1O [FRAMYCETIN]
[1]
  inhibition: Active
[2]
  pIC50: 4.05
[3]
  pIC50: 3.84
[4]
  inhibition: 60%
[5]
  pKd: 5.73
[6]
  pIC50: 4.12
[7]
  pKd: 4.94
[8]
  inhibition: Active
[9]
  Ratio: 1
[10]
  inhibition: Active
[11]
  Ratio: 1
[12]
  inhibition: Active
[13]
  pKd: 4.82
[14]
  Activity: 70%
[15]
  inhibition: Active
[16]
  pIC50: 4.03
[17]
  inhibition: Active
[18]
  pKd: 4.95
[19]
  inhibition: 60%
[20]
  inhibition: 60%
[21]
  pKd: 4.93
[22]
  inhibition: 60%
[23]
  inhibition: inactive

## CN(C)c1ccc(O)c2c1C[C@H]1C[C@H]3[C@H](N(C)C)C(O)=C(C(N)=O)C(=O)[C@@]3(O)C(O)=C1C2=O [MINOCYCLINE]
[2]
  pIC50: 3.40
[3]
  pIC50: 3.49
[4]
  inhibition: 30%
[24]
  inhibition: Active
[25]
  inhibition: inactive
[5]
  pKd: 6.19
[6]
  pIC50: 3.43
[7]
  pKd: 6.21
[9]
  Ratio: 2.4
[10]
  inhibition: inactive
[11]
  Ratio: 3.2
[12]
  inhibition: inactive
[13]
  pKd: 6.22
[14]
  Activity: 91%
[16]
  pIC50: 3.89
[17]
  inhibition: inactive
[18]
  pKd: 5.84
[19]
  inhibition: 30%
[20]
  inhibition: 30%
[21]
  pKd: 5.70
[22]
  inhibition: 30%
